Data taken from a melting point compilation (Tetko et al.; mined from patent text by program, amines drawn as free bases though some values may be those of a salt).

melting point [°C]	SMILES
274 to 276	O=c1c2c(Cc3ccccc3[N+](=O)[O-])n[nH]c2c2cccnc2n1-c1cccc(OC(F)(F)F)c1
255 to 259	CC(C)(O)c1ccnc(-c2ccc3nc(-c4n[nH]c5ccccc45)cn3c2)c1
155	Cc1cc(Cl)nc(N(C(N)=O)c2ccccc2[N+](=O)[O-])n1
208 to 210	C=C1OC(=NO)C(c2ccccc2)C(=O)N1C(C)(C)C(=O)Nc1cc(Cl)cc(Cl)c1 (stereo not given)
132 to 134	COC(=O)COc1cccc(CN(C)c2cnc(-c3ccccc3)c(-c3ccccc3)n2)c1
138 to 141	CC(C)(C)OC(=O)NCC(=O)N[C@@H](Cc1ccccc1)C(=O)O
183 to 185	CCN(CC)CC1CCCCN1CCNC(=O)N1c2cc(C)ccc2C(=O)Nc2cccnc21 (stereo not given)
104 to 105	CC(=O)C1=C(C)c2ccccc2C1(C)C
271 to 273	COc1cc2ncnc(Nc3cccc4ccccc34)c2cc1OC
162 to 164	O=c1oc(-c2ccccc2)nc2cccc(F)c12
215 to 243	CC(=NO)c1cnc2c(NC(=O)c3c(Cl)cccc3Cl)cccc2c1
164 to 166	Cc1cc2nc(C)c(=O)n(C)c2cc1C
274	COc1ccc(C2=NN(C(=O)c3cccc(NC(=O)c4ccc(NC(=O)c5ccc([N+](=O)[O-])cc5)cc4)c3)CCC2)cc1OCCN(C)C
158	Oc1ccc(Oc2cncnc2)cc1
235 to 236	CNc1nc(-c2ccccc2)c(-c2nc3ccccc3c(=O)n2-c2ccc(OC)cc2)s1
> 330	N#CC=Cc1ccc2c(c1)-c1c3c(c4c([nH]c5ccccc54)c1C2)C(=O)NC3
128	O=S(=O)(N[C@@H]1c2ccccc2CCC[C@H]1O)c1ccccc1 (relative stereo)
296 to 298	COc1ccc(Cc2ccc(-c3cnn4c(O)ncnc34)cc2)cc1
128	C[C@@H](N[C@@H](CC(=O)N1CCn2c(nnc2C(F)(F)F)C1)Cc1cc(F)c(F)cc1F)c1ccccc1
> 260	O=C(Nc1nccs1)c1nc(-c2ccc(N3CCOCC3)cc2)[nH]c1-c1ccc(Cl)cc1
149	C[C@@H](NC(=O)c1[nH]c2ccc(Cl)cc2c1S(=O)(=O)c1ccccc1)c1ccccc1
57 to 59	O=Cc1ccc(C(F)(F)F)cc1Oc1ccccc1

The remaining lines, values behind:

SMILES	melting point [°C]
CN(C)C(=O)N[C@H]1CC[C@H](CCN2CCN(c3ccc(O)c(Cl)c3Cl)CC2)CC1	278 to 280
CC(C)(C)c1ccc2oc(C(=O)CBr)cc2c1	100 to 102
CCCCCCCCCCCCCCc1ccc(OCC(O)CO)c(CC)c1 (stereo not given)	55 to 56
O=C(O)c1cn(-c2cnsn2)c2nc(Cl)c(F)cc2c1=O	222 to 223
CC(=O)OC1N=C(c2ccccc2Cl)c2c(cn(C)c2C)N(C)C1=O (stereo not given)	202 to 204
OCCC1(S)C2CC3CC(C2)CC1C3 (stereo not given)	68 to 70
N#Cc1c(N)[nH]c2c1COc1ccccc1-2	216 to 217
O=c1[nH]c2c(CCN3CCN(c4ncccn4)CC3)cccc2o1	189 to 190
CCCCc1csc2ccc3[nH]c4c(c3c12)CN(C(C)C)CC4	157 to 158
Cc1c(C(=O)Cl)ccc2c1C(=O)N(C)S2(=O)=O	149 to 150
CC(C)(CO)COc1ccc(NC(=O)c2csc3c2CCCC3)cc1C#N	148 to 150
C1=CCC2=C(C1)CC1=C(CC=CC1)C2	146 to 147
CSC1=CC2=CN(S)NN2C(C)=N1	256 to 258
CC(C)(C)c1ccc(Cn2cc(C(=O)C(=O)O)c3cc(-c4ccc(Cl)cc4)ccc32)cc1	183 to 184
CCOP(=O)(CS(=O)(=O)Oc1ccccc1)OCC	50.5 to 51.5
CCn1c(=O)c2[nH]c(/C=C/c3ccc(F)c(Cl)c3)nc2n(CC)c1=O	> 270
CCOC(=O)N1CCC(O)(CN)CC1	82
O=C(CCCCCCOc1ccc(O)cc1)C(F)(F)F	61 to 62
